Data from ChEMBL document CHEMBL3885881, “DrugMatrix”.

Species on record: Rattus norvegicus
Test: DrugMatrix - Regimen: Daily Repeat
Format: toxicity, organism-based, Sprague-Dawley
Design: regimen Daily Repeat, gender Male, age 6-8 weeks
Conditions: in vivo, po, route oral GAVAGE, […]; for ABSOLUTE BASOPHIL / ABSOLUTE EOSINOPHIL / ABSOLUTE LYMPHOCYTE / ABSOLUTE MONOCYTE / ABSOLUTE SEGMENTED NEUTROPHIL / BASOPHIL / EOSINOPHIL / ERYTHROCYTE COUNT / HEMATOCRIT / HEMOGLOBIN / LEUKOCYTE COUNT / LYMPHOCYTE / MEAN CORPUSCULAR HEMOGLOBIN / MEAN CORPUSCULAR HEMOGLOBIN CONCENTRATION / MEAN CORPUSCULAR VOLUME / MONOCYTE / NEUTROPHIL / NUCLEATED RED BLOOD CELLS / PLATELET COUNT: tissue Blood; for ALANINE AMINOTRANSFERASE / ALBUMIN / ALKALINE PHOSPHATASE / ASPARTATE AMINOTRANSFERASE / BLOOD UREA NITROGEN / CARBON DIOXIDE / CHLORIDE / CHOLESTEROL / CREATINE PHOSPHOKINASE / CREATININE / GLUCOSE / LACTATE DEHYDROGENASE / LIPASE / PHOSPHORUS / POTASSIUM / SODIUM / TOTAL BILIRUBIN / TOTAL PROTEIN / URIC ACID: tissue Plasma
[1] = 10 mg/kg, 72 h, dose level Low, time 3 day
[2] = 10 mg/kg, 120 h, dose level Low, time 5 day
[3] = 50 mg/kg, 72 h, dose level High, time 3 day
[4] = 50 mg/kg, 120 h, dose level High, time 5 day

## CC(C)CC(N(C)C)C1(c2ccc(Cl)cc2)CCC1 (configuration not stated) [SIBUTRAMINE]
[1]
  ABSOLUTE BASOPHIL: 0 CELLS/uL
  ABSOLUTE EOSINOPHIL: 0 CELLS/uL
  ABSOLUTE LYMPHOCYTE: 16618.67 CELLS/uL
  ABSOLUTE MONOCYTE: 131.33 CELLS/uL
  ABSOLUTE SEGMENTED NEUTROPHIL: 1483.33 CELLS/uL
  BASOPHIL: 0%
  EOSINOPHIL: 0%
  ERYTHROCYTE COUNT: 5.37 x10E6/uL
  HEMATOCRIT: 34.23%
  HEMOGLOBIN: 13.53 G/DL
  LEUKOCYTE COUNT: 18.23 x10E3/uL
  LYMPHOCYTE: 91%
  MEAN CORPUSCULAR HEMOGLOBIN: 25.17 pg
  MEAN CORPUSCULAR HEMOGLOBIN CONCENTRATION: 39.53 G/DL
  MEAN CORPUSCULAR VOLUME: 63.67 fL
  MONOCYTE: 0.67%
  NEUTROPHIL: 8.33%
  NUCLEATED RED BLOOD CELLS: 0.33 /100WBC
  PLATELET COUNT: 1187.67 x10E3/uL
  ALANINE AMINOTRANSFERASE: 61.33 u/L
  ALBUMIN: 3.93 G/DL
  ALKALINE PHOSPHATASE: 368 u/L
  ASPARTATE AMINOTRANSFERASE: 88.33 u/L
  BLOOD UREA NITROGEN: 12 mg/dL
  CARBON DIOXIDE: 33 mmol/L
  CHLORIDE: 100.33 MEQ/L
  CHOLESTEROL: 70 mg/dL
  CREATINE PHOSPHOKINASE: 531.67 u/L
  CREATININE: 0.1 mg/dL
  GLUCOSE: 158.33 mg/dL
  LACTATE DEHYDROGENASE: 253.33 u/L
  LIPASE: 10.33 u/L
  PHOSPHORUS: 11.93 mg/dL
  POTASSIUM: 6.44 MEQ/L
  SODIUM: 140.57 MEQ/L
  TOTAL BILIRUBIN: 0.13 mg/dL
  TOTAL PROTEIN: 5.37 G/DL
  URIC ACID: 1.27 mg/dL
[2]
  ABSOLUTE BASOPHIL: 0 CELLS/uL
  ABSOLUTE EOSINOPHIL: 0 CELLS/uL
  ABSOLUTE LYMPHOCYTE: 12939.67 CELLS/uL
  ABSOLUTE MONOCYTE: 411.33 CELLS/uL
  ABSOLUTE SEGMENTED NEUTROPHIL: 1515.67 CELLS/uL
  BASOPHIL: 0%
  EOSINOPHIL: 0%
  ERYTHROCYTE COUNT: 5.44 x10E6/uL
  HEMATOCRIT: 33.73%
  HEMOGLOBIN: 13.47 G/DL
  LEUKOCYTE COUNT: 14.87 x10E3/uL
  LYMPHOCYTE: 86.67%
  MEAN CORPUSCULAR HEMOGLOBIN: 24.83 pg
  MEAN CORPUSCULAR HEMOGLOBIN CONCENTRATION: 39.93 G/DL
  MEAN CORPUSCULAR VOLUME: 62.2 fL
  MONOCYTE: 2.67%
  NEUTROPHIL: 10.67%
  NUCLEATED RED BLOOD CELLS: 0 /100WBC
  PLATELET COUNT: 1072.33 x10E3/uL
  ALANINE AMINOTRANSFERASE: 55.67 u/L
  ALBUMIN: 4.07 G/DL
  ALKALINE PHOSPHATASE: 363.67 u/L
  ASPARTATE AMINOTRANSFERASE: 79.33 u/L
  BLOOD UREA NITROGEN: 14 mg/dL
  CARBON DIOXIDE: 34.33 mmol/L
  CHLORIDE: 101.33 MEQ/L
  CHOLESTEROL: 72 mg/dL
  CREATINE PHOSPHOKINASE: 211.33 u/L
  CREATININE: 0.23 mg/dL
  GLUCOSE: 148.67 mg/dL
  LACTATE DEHYDROGENASE: 269 u/L
  LIPASE: 11 u/L
  PHOSPHORUS: 10.8 mg/dL
  POTASSIUM: 6.14 MEQ/L
  SODIUM: 143.2 MEQ/L
  TOTAL BILIRUBIN: 0.17 mg/dL
  TOTAL PROTEIN: 5.57 G/DL
  URIC ACID: 1.07 mg/dL
[3]
  ABSOLUTE BASOPHIL: 0 CELLS/uL
  ABSOLUTE EOSINOPHIL: 0 CELLS/uL
  ABSOLUTE LYMPHOCYTE: 12941.33 CELLS/uL
  ABSOLUTE MONOCYTE: 144.33 CELLS/uL
  ABSOLUTE SEGMENTED NEUTROPHIL: 2147.67 CELLS/uL
  BASOPHIL: 0%
  EOSINOPHIL: 0%
  ERYTHROCYTE COUNT: 5.65 x10E6/uL
  HEMATOCRIT: 35.8%
  HEMOGLOBIN: 14.6 G/DL
  LEUKOCYTE COUNT: 15.23 x10E3/uL
  LYMPHOCYTE: 85.33%
  MEAN CORPUSCULAR HEMOGLOBIN: 25.83 pg
  MEAN CORPUSCULAR HEMOGLOBIN CONCENTRATION: 40.8 G/DL
  MEAN CORPUSCULAR VOLUME: 63.37 fL
  MONOCYTE: 1%
  NEUTROPHIL: 13.67%
  NUCLEATED RED BLOOD CELLS: 0 /100WBC
  PLATELET COUNT: 1122.33 x10E3/uL
  ALANINE AMINOTRANSFERASE: 51.33 u/L
  ALBUMIN: 3.67 G/DL
  ALKALINE PHOSPHATASE: 417 u/L
  ASPARTATE AMINOTRANSFERASE: 96 u/L
  BLOOD UREA NITROGEN: 13 mg/dL
  CARBON DIOXIDE: 31.67 mmol/L
  CHLORIDE: 102.33 MEQ/L
  CHOLESTEROL: 68.67 mg/dL
  CREATINE PHOSPHOKINASE: 259.67 u/L
  CREATININE: 0.14 mg/dL
  GLUCOSE: 156.33 mg/dL
  LACTATE DEHYDROGENASE: 181 u/L
  LIPASE: 10 u/L
  PHOSPHORUS: 11.27 mg/dL
  POTASSIUM: 5.99 MEQ/L
  SODIUM: 144.97 MEQ/L
  TOTAL BILIRUBIN: 0.17 mg/dL
  TOTAL PROTEIN: 5.37 G/DL
  URIC ACID: 1.3 mg/dL
[4]
  ABSOLUTE BASOPHIL: 0 CELLS/uL
  ABSOLUTE EOSINOPHIL: 0 CELLS/uL
  ABSOLUTE LYMPHOCYTE: 16000.33 CELLS/uL
  ABSOLUTE MONOCYTE: 0 CELLS/uL
  ABSOLUTE SEGMENTED NEUTROPHIL: 833 CELLS/uL
  BASOPHIL: 0%
  EOSINOPHIL: 0%
  ERYTHROCYTE COUNT: 5.75 x10E6/uL
  HEMATOCRIT: 36.37%
  HEMOGLOBIN: 14.3 G/DL
  LEUKOCYTE COUNT: 16.83 x10E3/uL
  LYMPHOCYTE: 95%
  MEAN CORPUSCULAR HEMOGLOBIN: 24.9 pg
  MEAN CORPUSCULAR HEMOGLOBIN CONCENTRATION: 39.33 G/DL
  MEAN CORPUSCULAR VOLUME: 63.37 fL
  MONOCYTE: 0%
  NEUTROPHIL: 5%
  NUCLEATED RED BLOOD CELLS: 0 /100WBC
  PLATELET COUNT: 1265 x10E3/uL
  ALANINE AMINOTRANSFERASE: 57.33 u/L
  ALBUMIN: 4.07 G/DL
  ALKALINE PHOSPHATASE: 391.67 u/L
  ASPARTATE AMINOTRANSFERASE: 95.67 u/L
  BLOOD UREA NITROGEN: 14.67 mg/dL
  CARBON DIOXIDE: 30 mmol/L
  CHLORIDE: 102 MEQ/L
  CHOLESTEROL: 56 mg/dL
  CREATINE PHOSPHOKINASE: 585 u/L
  CREATININE: 0.11 mg/dL
  GLUCOSE: 164 mg/dL
  LACTATE DEHYDROGENASE: 175.33 u/L
  LIPASE: 9.67 u/L
  PHOSPHORUS: 12.43 mg/dL
  POTASSIUM: 6.27 MEQ/L
  SODIUM: 142.13 MEQ/L
  TOTAL BILIRUBIN: 0.1 mg/dL
  TOTAL PROTEIN: 5.6 G/DL
  URIC ACID: 1.73 mg/dL
